From ChEMBL document CHEMBL2163339, “Discovery of potent inhibitors of human and mouse fatty acid amide hydrolases” (J Med Chem, 2012)
pIC50, pKi: −log10 of the molar value. Values belong to the molecule of their own block, whether it stands above or below them. Calls of active or inactive are those of the source.

Assays:
[1] = target: T1, Fatty-acid amide hydrolase 1 (Mus musculus, UniProt O08914); assay: Inhibition of mouse FAAH isolated from brain homogenate using [3H-ethanolamine]AEA as substrate incubated for 20 mins prior to substrate addition measured after 15 mins by beta counting analysis
T1 sequence (O08914 whole entry): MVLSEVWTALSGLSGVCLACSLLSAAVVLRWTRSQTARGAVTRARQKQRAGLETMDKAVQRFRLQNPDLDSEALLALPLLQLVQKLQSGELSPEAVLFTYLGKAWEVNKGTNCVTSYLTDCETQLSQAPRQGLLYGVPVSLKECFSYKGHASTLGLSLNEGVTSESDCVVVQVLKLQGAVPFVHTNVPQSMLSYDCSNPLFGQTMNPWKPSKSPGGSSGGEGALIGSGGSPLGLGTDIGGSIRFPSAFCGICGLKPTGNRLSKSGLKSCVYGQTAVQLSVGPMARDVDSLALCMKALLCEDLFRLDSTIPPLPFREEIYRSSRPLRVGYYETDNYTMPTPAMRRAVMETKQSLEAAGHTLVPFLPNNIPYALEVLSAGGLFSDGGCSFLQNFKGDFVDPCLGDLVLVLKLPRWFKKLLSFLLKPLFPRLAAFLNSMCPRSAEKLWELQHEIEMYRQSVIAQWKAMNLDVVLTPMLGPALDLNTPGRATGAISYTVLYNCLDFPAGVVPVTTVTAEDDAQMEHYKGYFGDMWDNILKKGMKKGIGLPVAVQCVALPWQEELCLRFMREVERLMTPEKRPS

Mus musculus [2] = assay: Anxiolytic activity in mouse at 3 mg/kg, po measured for 5 mins by elevated plus maze test; assay type: organism-based; design: dose 3 mg/kg, route oral; conditions: in vivo
Mus musculus [3] = assay: Toxicity against CD1 mouse assessed as limbic/striatal stereotypies at 10 mg/kg, po at 60 mins by Irwin test; assay type: organism-based; design: dose 10 mg/kg, route oral; conditions: in vivo, 1 h
Rattus norvegicus [4] = assay: Analgesic activity in rat assessed as increase in paw withdrawal threshold at 10 mg/kg, po; assay type: functional, organism-based; design: dose 10 mg/kg
Mus musculus [5] = species on record: Mus musculus; assay: Inhibition of DAGL-mediated 2AG synthesis in mouse brain homogenate using […] as substrate incubated for 20 mins prior to substrate addition; assay type: tissue-based
Mus musculus [6] = assay: Anxiolytic activity in mouse at 10 mg/kg, po measured for 5 mins by elevated plus maze test; assay type: organism-based; design: dose 10 mg/kg, route oral; conditions: in vivo
Mus musculus [7] = assay: Toxicity against CD1 mouse assessed as limbic/striatal stereotypies at 100 mg/kg, po at 240 mins by Irwin test; assay type: organism-based; design: dose 100 mg/kg, route oral; conditions: in vivo, 4 h
Mus musculus [8] = assay: Toxicity against CD1 mouse assessed as limbic/striatal stereotypies at 30 mg/kg, po at 240 mins by Irwin test; assay type: organism-based; design: dose 30 mg/kg, route oral; conditions: in vivo, 4 h
Mus musculus [9] = assay: Toxicity against CD1 mouse assessed as limbic/striatal stereotypies at 30 mg/kg, po at 60 mins by Irwin test; assay type: organism-based; design: dose 30 mg/kg, route oral; conditions: in vivo, 1 h
Mus musculus [10] = assay: Anxiolytic activity in mouse at 30 mg/kg, po measured for 5 mins by elevated plus maze test; assay type: organism-based; design: dose 30 mg/kg, route oral; conditions: in vivo
[11] = target: Cannabinoid receptor 1 (Mus musculus) (UniProt P47746); assay: Displacement of [3H]CP55.940 from CB1 receptor in mouse brain fraction; assay type: tissue-based
Mus musculus [12] = assay: Toxicity against CD1 mouse assessed as limbic/striatal stereotypies at 10 mg/kg, po at 240 mins by Irwin test; assay type: organism-based; design: dose 10 mg/kg, route oral; conditions: in vivo, 4 h
Mus musculus [13] = assay: Toxicity against CD1 mouse assessed as limbic/striatal stereotypies at 100 mg/kg, po at 60 mins by Irwin test; assay type: organism-based; design: dose 100 mg/kg, route oral; conditions: in vivo, 1 h
[14] = target: Cannabinoid receptor 2 (Mus musculus) (UniProt P47936); assay: Displacement of [3H]CP55.940 from CB2 receptor in mouse spleen fraction; assay type: tissue-based
[15] = target: Transient receptor potential cation channel subfamily V member 1 (Mus musculus) (UniProt Q704Y3); assay: Displacement of [3H]RTX from TRPV1 receptor in mouse brain fraction; assay type: tissue-based
Rattus norvegicus [16] = assay: Analgesic activity in rat assessed as increase in paw withdrawal threshold at 100 mg/kg, po; assay type: functional, organism-based; design: dose 100 mg/kg
Rattus norvegicus [17] = assay: Analgesic activity in rat assessed as increase in paw withdrawal threshold at 30 mg/kg, po; assay type: functional, organism-based; design: dose 30 mg/kg
[18] = target: T2, Monoglyceride lipase (Mus musculus) (UniProt O35678); assay: Inhibition of MAGL-mediated 2AG hydrolysis in mouse brain homogenate using [3H]2OG as substrate incubated for 20 mins prior to substrate addition; assay type: tissue-based
T2 sequence (whole entry): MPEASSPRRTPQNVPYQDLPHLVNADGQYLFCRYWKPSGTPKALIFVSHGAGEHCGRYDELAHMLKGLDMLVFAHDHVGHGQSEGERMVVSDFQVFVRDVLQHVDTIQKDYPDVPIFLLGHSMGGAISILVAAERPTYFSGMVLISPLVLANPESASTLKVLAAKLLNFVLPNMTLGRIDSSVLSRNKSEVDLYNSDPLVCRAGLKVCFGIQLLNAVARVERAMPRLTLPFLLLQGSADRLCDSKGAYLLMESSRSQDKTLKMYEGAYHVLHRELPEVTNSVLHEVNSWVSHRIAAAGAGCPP

[19] = target: T3, N-acyl-phosphatidylethanolamine-hydrolyzing phospholipase D (Mus musculus) (UniProt Q8BH82); assay: Inhibition of NAPE-PLD-meidated AEA synthesis in mouse brain homogenate using [3H]NArPE as substrate incubated for 20 mins prior to substrate addition; assay type: tissue-based
T3 sequence (whole entry): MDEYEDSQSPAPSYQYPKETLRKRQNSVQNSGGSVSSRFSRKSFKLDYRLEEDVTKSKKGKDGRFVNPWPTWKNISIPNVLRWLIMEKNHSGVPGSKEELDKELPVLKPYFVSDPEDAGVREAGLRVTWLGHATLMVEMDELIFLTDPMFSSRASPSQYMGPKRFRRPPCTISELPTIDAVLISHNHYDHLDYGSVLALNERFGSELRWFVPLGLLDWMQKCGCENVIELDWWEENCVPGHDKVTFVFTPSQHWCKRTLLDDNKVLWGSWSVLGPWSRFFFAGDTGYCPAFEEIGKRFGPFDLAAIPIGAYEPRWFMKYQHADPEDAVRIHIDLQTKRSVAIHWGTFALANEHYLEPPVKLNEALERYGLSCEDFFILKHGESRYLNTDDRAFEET

[20] = target: T4, Fatty-acid amide hydrolase 1 (Mus musculus) (UniProt O08914); assay: Reversible inhibition of mouse FAAH isolated from brain homogenate using [3H-ethanolamine]AEA as substrate incubated for 20 mins prior to substrate addition measured after 18 hrs by […] method
T4 sequence (whole entry): T1 sequence (O08914 whole entry)

[21] = target: Voltage-gated inwardly rectifying potassium channel KCNH2 (Homo sapiens, UniProt Q12809); assay: Inhibition of human ERG expressed in CHOK1 cells for 5 mins by automated patch clamp assay; assay type: cell-based, CHO-K1
[22] = target: T4, Fatty-acid amide hydrolase 1 (Mus musculus); assay: Non-competitive inhibition of mouse FAAH isolated from brain homogenate using [3H-ethanolamine]AEA as substrate by Lineweaver-Burk plot analysis
[23] = target: T5, Fatty-acid amide hydrolase 1 (Homo sapiens, UniProt O00519); assay: Inhibition of human recombinant FAAH
T5 sequence (O00519 whole entry): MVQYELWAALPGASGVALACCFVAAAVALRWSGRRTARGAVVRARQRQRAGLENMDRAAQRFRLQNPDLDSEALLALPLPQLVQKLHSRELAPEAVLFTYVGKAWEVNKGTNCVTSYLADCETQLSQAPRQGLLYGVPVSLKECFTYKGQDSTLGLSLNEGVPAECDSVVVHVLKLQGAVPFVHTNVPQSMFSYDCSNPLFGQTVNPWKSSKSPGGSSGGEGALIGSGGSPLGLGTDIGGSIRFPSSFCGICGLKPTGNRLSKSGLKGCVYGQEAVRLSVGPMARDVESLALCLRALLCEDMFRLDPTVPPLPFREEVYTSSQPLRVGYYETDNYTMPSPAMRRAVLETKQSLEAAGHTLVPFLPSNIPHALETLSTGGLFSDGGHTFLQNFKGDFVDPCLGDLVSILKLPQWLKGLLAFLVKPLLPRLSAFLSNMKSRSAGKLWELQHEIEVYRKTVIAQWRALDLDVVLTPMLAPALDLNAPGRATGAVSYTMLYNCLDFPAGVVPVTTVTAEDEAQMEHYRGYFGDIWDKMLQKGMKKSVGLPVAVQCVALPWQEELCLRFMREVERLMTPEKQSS

Chain of Cannabinoid receptor 2 (Mus musculus) (P47936 whole entry): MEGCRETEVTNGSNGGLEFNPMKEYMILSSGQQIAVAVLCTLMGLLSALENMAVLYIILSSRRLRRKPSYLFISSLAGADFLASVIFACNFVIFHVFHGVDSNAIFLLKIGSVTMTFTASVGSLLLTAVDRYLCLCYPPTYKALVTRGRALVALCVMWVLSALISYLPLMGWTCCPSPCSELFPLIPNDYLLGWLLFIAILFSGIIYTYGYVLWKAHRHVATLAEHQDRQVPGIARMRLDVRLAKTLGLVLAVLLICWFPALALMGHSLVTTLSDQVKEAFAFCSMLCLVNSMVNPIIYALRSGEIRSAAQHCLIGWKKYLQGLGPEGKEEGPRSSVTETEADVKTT
Chain of Transient receptor potential cation channel subfamily V member 1 (Mus musculus) (Q704Y3 whole entry): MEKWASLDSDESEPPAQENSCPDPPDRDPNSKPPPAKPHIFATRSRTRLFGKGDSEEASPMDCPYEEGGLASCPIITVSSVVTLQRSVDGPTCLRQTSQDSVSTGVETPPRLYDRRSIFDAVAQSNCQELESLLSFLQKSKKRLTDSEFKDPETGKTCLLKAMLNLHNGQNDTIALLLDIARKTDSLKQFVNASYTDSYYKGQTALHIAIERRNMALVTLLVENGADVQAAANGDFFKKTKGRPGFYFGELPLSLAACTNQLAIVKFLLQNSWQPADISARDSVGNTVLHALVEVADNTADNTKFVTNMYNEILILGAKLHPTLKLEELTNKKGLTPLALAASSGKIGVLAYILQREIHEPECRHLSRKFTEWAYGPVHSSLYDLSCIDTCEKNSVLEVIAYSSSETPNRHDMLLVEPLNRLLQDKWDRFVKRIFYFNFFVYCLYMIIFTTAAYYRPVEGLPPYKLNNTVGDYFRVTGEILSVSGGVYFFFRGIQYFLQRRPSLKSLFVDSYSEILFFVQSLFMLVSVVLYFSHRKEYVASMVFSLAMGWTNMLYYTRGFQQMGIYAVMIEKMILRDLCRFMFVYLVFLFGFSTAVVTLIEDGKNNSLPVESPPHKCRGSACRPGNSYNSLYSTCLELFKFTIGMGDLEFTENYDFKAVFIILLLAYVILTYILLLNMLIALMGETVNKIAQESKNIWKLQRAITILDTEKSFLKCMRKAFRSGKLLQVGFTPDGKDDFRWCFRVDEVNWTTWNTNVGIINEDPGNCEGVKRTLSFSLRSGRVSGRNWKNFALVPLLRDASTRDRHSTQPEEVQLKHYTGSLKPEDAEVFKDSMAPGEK
Chain of Cannabinoid receptor 1 (Mus musculus) (P47746 whole entry): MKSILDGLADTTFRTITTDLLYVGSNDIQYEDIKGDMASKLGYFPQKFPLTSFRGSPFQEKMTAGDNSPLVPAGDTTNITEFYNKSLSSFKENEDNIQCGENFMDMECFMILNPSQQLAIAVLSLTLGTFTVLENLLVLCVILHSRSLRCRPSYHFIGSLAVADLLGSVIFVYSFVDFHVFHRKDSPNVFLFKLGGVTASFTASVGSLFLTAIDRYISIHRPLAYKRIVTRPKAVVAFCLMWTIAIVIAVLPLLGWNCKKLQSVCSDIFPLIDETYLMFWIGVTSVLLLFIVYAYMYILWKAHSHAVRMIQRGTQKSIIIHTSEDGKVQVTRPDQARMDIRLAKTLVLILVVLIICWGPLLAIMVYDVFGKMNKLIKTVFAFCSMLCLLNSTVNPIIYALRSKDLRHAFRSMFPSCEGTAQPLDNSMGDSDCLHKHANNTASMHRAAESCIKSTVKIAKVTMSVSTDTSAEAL
Chain of Voltage-gated inwardly rectifying potassium channel KCNH2 (Q12809 whole entry): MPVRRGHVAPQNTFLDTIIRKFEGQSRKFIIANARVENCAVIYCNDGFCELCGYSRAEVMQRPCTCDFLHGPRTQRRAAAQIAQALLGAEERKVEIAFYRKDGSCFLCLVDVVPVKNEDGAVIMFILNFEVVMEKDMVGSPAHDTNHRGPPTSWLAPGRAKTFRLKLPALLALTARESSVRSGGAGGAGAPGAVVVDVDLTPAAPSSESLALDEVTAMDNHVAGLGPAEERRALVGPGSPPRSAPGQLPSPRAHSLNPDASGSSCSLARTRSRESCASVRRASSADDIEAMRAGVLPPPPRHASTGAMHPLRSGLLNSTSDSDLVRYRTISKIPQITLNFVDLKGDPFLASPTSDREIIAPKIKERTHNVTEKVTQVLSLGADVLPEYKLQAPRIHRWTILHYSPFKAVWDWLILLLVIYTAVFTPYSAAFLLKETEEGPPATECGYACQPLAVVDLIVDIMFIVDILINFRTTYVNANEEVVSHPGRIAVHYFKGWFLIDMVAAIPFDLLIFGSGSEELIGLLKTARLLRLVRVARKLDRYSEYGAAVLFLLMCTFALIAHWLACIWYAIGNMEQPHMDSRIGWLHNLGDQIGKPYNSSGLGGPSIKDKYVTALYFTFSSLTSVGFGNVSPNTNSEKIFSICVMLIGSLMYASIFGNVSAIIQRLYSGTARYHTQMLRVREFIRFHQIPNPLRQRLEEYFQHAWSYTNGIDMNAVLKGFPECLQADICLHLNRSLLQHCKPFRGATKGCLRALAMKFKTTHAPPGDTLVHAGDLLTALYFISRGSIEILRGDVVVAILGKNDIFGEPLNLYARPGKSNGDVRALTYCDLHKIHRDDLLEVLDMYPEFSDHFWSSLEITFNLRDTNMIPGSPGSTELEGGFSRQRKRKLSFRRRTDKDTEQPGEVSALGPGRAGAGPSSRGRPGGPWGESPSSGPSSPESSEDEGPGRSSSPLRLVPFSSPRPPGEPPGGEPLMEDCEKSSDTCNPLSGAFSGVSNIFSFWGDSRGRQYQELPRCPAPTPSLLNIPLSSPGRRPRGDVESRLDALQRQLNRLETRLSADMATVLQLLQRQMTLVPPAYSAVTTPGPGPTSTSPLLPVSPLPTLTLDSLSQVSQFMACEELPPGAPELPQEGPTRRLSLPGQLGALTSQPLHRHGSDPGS

Compound: Cc1cc(C(N)=O)c(-c2cccc(OC(=O)NC3CCCCC3)c2)o1
pIC50 [1]: < 7.15

Compound: CCCCNC(=O)Oc1cccc(-n2ccc(C(N)=O)c2)c1
pIC50 [1]: 6.62
pKi [1]: 7.22

Compound: COc1cccc(-c2c(C(=O)NCCCCCc3ccccc3)cc(C)n2Cc2ccccc2)c1
pIC50 [1]: < 4.30

Compound: NC(=O)c1ccn(-c2cccc(OC(=O)NCCOCCOc3c(F)cc(F)cc3F)c2)c1
pIC50 [1]: 7.37
pKi [1]: 7.96

Compound: NC(=O)c1ccn(-c2cccc(OC(=O)NC3CCCCC3)c2)c1
pIC50 [1]: 6.92
pKi [1]: 7.49

Compound: C#CCCCCCCCCCNC(=O)Oc1cccc(-n2ccc(C(N)=O)c2)c1
Activity (Mus musculus [2]): Non-toxic
Activity (Mus musculus [3]): Toxic
Activity (Rattus norvegicus [4]): inactive
inhibition (Mus musculus [5]): inactive
Activity (Mus musculus [6]): Non-toxic
Activity (Mus musculus [7]): Non-toxic
Activity (Mus musculus [8]): Non-toxic
Activity (Mus musculus [9]): Toxic
Activity (Mus musculus [10]): Non-toxic
pIC50 [1]: 9.17
pKi [1]: 9.74
Activity [11]: inactive
Activity (Mus musculus [12]): Non-toxic
Activity (Mus musculus [13]): Toxic
Activity [14]: inactive
Activity [15]: inactive
Activity (Rattus norvegicus [16]): Active
Activity (Rattus norvegicus [17]): Active
inhibition [18]: inactive
inhibition [19]: inactive

inhibition [20]: Active
Compound: O=C(CCCCCCc1ccccc1)c1ncc(-c2ccccn2)o1

Compound: Cc1cc(C(N)=O)c(-c2cccc(OC(=O)NCCCCCCc3ccccc3)c2)s1
inhibition (Mus musculus [5]): inactive
inhibition [20]: Active
pIC50 [21]: < 5.00
inhibition [22]: Active
pIC50 [1]: 8.72
pKi [1]: 9.30
Activity [11]: inactive
Activity [14]: inactive
Activity [15]: inactive
inhibition [18]: inactive
inhibition [19]: inactive

Compound: O=C(NC1CCCCC1)Oc1cccc(-n2ccc(C(=O)OCCCCCCc3ccccc3)c2)c1
pIC50 [1]: < 4.30

Compound: Cc1cc(C(=O)NCCCCCCc2ccccc2)c(-c2cccc(OC(=O)NC3CCCCC3)c2)n1Cc1ccccc1
pIC50 [1]: < 6.70

Compound: Cc1oc(-c2cccc(OC(=O)NCCCCCCc3ccccc3)c2)cc1C(N)=O
pIC50 [1]: 7.74
pKi [1]: 8.32

Compound: NC(=O)c1ccn(-c2cccc(OC(=O)NCCOCCOc3ccccc3F)c2)c1
pIC50 [1]: 7.16
pKi [1]: 7.74

Compound: NC(=O)c1cccc(-c2cccc(OC(=O)NCCCCCCc3ccccc3)c2)c1
pIC50 [23]: 7.44
pIC50 [1]: 7.85

Compound: Cc1oc(-c2cccc(OC(=O)NC3CCCCC3)c2)cc1C(N)=O
pIC50 [1]: < 6.70
